{"source": "patent US8465912B2", "about": "“Methods for the identification of agents that inhibit mesenchymal-like tumor cells or their formation” (OSI Pharmaceuticals, LLC, priority 2009, dated 2013)", "origin": "cited, not measured here", "key": {"carcinoma cells": {"system": "carcinoma cells", "conditions": "cited from earlier work"}, "[1]": {"system": "advanced, treatment-refractory NSCLC", "conditions": "patients with advanced; cited from earlier work"}, "pancreatic cancer": {"system": "pancreatic cancer", "conditions": "in combination with gemcitabine; cited from earlier work"}}, "data": [{"smiles": "C#Cc1cccc(Nc2ncnc3cc(OCCOC)c(OCCOC)cc23)c1", "note": "[erlotinib, [6,7-bis(2-methoxyethoxy)-4-quinazolin-4-yl]-(3-ethynylphenyl) amine]", "values": [{"measurement": "Cellular sensitivity after EMT-like transition", "setting": "carcinoma cells", "value": "cellular insensitivity"}, {"measurement": "Clinical outcome, phase III monotherapy", "setting": "[1]", "value": "significantly prolonged survival, delayed disease progression and delayed worsening of lung cancer-related symptoms"}, {"measurement": "Survival, phase III first-line", "setting": "pancreatic cancer", "value": "improves survival"}]}]}
